Paper PMC8429728, “TNK1 is a ubiquitin-binding and 14-3-3-regulated kinase that can be targeted to block tumor growth” (Nature Communications, 2021)
Like-named read-outs stand apart in the source and are kept apart here.

How the values were obtained:
[1] = target: T1, Aurora A (Homo sapiens, UniProt O14965); test: radiometric […]-ATP kinase assay with recombinant kinase at Km ATP ([…]); format: biochemical
T1 construct: gene AURKA
T1 sequence (O14965 1-403): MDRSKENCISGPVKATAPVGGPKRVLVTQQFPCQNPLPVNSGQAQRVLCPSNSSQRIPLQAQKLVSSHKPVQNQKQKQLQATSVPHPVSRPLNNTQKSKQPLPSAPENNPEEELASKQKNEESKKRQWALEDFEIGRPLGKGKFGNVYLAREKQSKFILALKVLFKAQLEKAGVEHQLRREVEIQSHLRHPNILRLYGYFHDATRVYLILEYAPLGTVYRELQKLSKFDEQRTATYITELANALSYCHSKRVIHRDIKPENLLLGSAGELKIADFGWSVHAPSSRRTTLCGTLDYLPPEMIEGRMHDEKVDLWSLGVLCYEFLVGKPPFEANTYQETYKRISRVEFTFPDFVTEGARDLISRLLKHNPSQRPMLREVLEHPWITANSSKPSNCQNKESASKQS

[2] = target: ABL2/ARG (Homo sapiens, UniProt P42684); test: biochemical; set-up: Reaction Biology 371-kinase panel at Km ATP, per cent enzyme activity relative to DMSO, single dose in duplicate; conditions: duplicate measurements, Km ATP
Procedure: (§1) To assess kinase selectivity, we screened TP-5801 (300 nM) against a panel of 371 kinases in vitro. […] In addition to TNK1, only 7 other kinases were inhibited by more than 90% (Supplementary Fig. 8 and Supplementary Data 2). […] The resulting % Enzyme activity (relative to DMSO controls) were plotted in GraphPad and IC50 values were determined by sigmoidal dose-response (variable slope) curve fits, with a bottom constraint of 0.

[3] = target: ALK (Homo sapiens, UniProt Q9UM73); test: biochemical; set-up: Reaction Biology 371-kinase panel at Km ATP, per cent enzyme activity relative to DMSO, single dose in duplicate; conditions: duplicate measurements, Km ATP
Procedure: as §1

[4] = target: CDK9/CYCLIN K (Homo sapiens, UniProt P50750); test: biochemical; set-up: Reaction Biology 371-kinase panel at Km ATP, per cent enzyme activity relative to DMSO, single dose in duplicate; conditions: duplicate measurements, Km ATP
Procedure: as §1

[5] = target: T2, CK1g1 (Homo sapiens, UniProt Q9HCP0); test: biochemical; set-up: Reaction Biology 371-kinase panel at Km ATP, per cent enzyme activity relative to DMSO, single dose in duplicate; conditions: duplicate measurements, Km ATP
T2 construct: gene CSNK1G1
Procedure: as §1

[6] = target: ERN2/IRE2 (Homo sapiens, UniProt Q76MJ5); test: biochemical; set-up: Reaction Biology 371-kinase panel at Km ATP, per cent enzyme activity relative to DMSO, single dose in duplicate; conditions: duplicate measurements, Km ATP
Procedure: as §1

[7] = target: FGFR4 (Homo sapiens, UniProt P22455); test: biochemical; set-up: Reaction Biology 371-kinase panel at Km ATP, per cent enzyme activity relative to DMSO, single dose in duplicate; conditions: duplicate measurements, Km ATP
Procedure: as §1

[8] = target: T3, MEK5 (Homo sapiens, UniProt Q13163); test: biochemical; set-up: Reaction Biology 371-kinase panel at Km ATP, per cent enzyme activity relative to DMSO, single dose in duplicate; conditions: duplicate measurements, Km ATP
T3 construct: gene MAP2K5
Procedure: as §1

[9] = target: MLK2/MAP3K10 (Homo sapiens, UniProt Q02779); test: biochemical; set-up: Reaction Biology 371-kinase panel at Km ATP, per cent enzyme activity relative to DMSO, single dose in duplicate; conditions: duplicate measurements, Km ATP
Procedure: as §1

[10] = target: MRCKa/CDC42BPA (Homo sapiens, UniProt Q5VT25); test: biochemical; set-up: Reaction Biology 371-kinase panel at Km ATP, per cent enzyme activity relative to DMSO, single dose in duplicate; conditions: duplicate measurements, Km ATP
Procedure: as §1

[11] = target: NEK6 (Homo sapiens, UniProt Q9HC98); test: biochemical; set-up: Reaction Biology 371-kinase panel at Km ATP, per cent enzyme activity relative to DMSO, single dose in duplicate; conditions: duplicate measurements, Km ATP
Procedure: as §1

[12] = target: T4, PKCa (Homo sapiens, UniProt P17252); test: biochemical; set-up: Reaction Biology 371-kinase panel at Km ATP, per cent enzyme activity relative to DMSO, single dose in duplicate; conditions: duplicate measurements, Km ATP
T4 construct: gene PRKCA
Procedure: as §1

[13] = target: ROCK1 (Homo sapiens, UniProt Q13464); test: biochemical; set-up: Reaction Biology 371-kinase panel at Km ATP, per cent enzyme activity relative to DMSO, single dose in duplicate; conditions: duplicate measurements, Km ATP
Procedure: as §1

[14] = target: SBK1 (Homo sapiens, UniProt Q52WX2); test: biochemical; set-up: Reaction Biology 371-kinase panel at Km ATP, per cent enzyme activity relative to DMSO, single dose in duplicate; conditions: duplicate measurements, Km ATP
Procedure: as §1

[15] = target: SRPK2 (Homo sapiens, UniProt P78362); test: biochemical; set-up: Reaction Biology 371-kinase panel at Km ATP, per cent enzyme activity relative to DMSO, single dose in duplicate; conditions: duplicate measurements, Km ATP
Procedure: as §1

[16] = target: TLK1 (Homo sapiens, UniProt Q9UKI8); test: biochemical; set-up: Reaction Biology 371-kinase panel at Km ATP, per cent enzyme activity relative to DMSO, single dose in duplicate; conditions: duplicate measurements, Km ATP
Procedure: as §1

[17] = target: TSSK3/STK22C (Homo sapiens, UniProt Q96PN8); test: biochemical; set-up: Reaction Biology 371-kinase panel at Km ATP, per cent enzyme activity relative to DMSO, single dose in duplicate; conditions: duplicate measurements, Km ATP
Procedure: as §1

[18] = read-out: % Enzyme Activity (relative to DMSO controls) / TP-0005801 (0.3µM) / Data 1
[19] = read-out: % Enzyme Activity (relative to DMSO controls) / TP-0005801 (0.3µM) / Data 2

Sequence of SBK1 (Q52WX2 whole entry): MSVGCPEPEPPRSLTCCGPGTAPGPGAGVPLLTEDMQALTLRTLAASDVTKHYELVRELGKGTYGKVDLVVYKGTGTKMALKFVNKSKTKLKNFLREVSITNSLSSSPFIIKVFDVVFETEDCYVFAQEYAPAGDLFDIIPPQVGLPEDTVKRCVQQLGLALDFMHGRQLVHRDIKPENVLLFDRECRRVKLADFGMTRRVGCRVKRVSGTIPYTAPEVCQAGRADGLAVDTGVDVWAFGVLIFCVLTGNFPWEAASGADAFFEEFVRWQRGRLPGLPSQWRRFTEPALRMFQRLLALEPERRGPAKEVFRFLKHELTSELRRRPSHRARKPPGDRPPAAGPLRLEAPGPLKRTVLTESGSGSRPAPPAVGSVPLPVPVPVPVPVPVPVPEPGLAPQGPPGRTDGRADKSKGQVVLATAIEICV
T2 sequence (Q9HCP0 whole entry): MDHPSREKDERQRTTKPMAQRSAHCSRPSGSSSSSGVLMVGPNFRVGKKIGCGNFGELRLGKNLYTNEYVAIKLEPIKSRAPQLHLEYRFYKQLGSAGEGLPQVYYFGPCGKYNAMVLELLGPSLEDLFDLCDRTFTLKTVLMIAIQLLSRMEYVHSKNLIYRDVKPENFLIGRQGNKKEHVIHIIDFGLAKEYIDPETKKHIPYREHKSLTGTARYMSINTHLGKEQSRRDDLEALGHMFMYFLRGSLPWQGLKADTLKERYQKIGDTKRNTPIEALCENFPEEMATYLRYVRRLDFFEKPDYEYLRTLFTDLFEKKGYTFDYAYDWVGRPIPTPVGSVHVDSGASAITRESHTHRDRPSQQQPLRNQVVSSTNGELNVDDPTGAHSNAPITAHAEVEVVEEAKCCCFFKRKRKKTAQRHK
Sequence of SRPK2 (P78362 whole entry): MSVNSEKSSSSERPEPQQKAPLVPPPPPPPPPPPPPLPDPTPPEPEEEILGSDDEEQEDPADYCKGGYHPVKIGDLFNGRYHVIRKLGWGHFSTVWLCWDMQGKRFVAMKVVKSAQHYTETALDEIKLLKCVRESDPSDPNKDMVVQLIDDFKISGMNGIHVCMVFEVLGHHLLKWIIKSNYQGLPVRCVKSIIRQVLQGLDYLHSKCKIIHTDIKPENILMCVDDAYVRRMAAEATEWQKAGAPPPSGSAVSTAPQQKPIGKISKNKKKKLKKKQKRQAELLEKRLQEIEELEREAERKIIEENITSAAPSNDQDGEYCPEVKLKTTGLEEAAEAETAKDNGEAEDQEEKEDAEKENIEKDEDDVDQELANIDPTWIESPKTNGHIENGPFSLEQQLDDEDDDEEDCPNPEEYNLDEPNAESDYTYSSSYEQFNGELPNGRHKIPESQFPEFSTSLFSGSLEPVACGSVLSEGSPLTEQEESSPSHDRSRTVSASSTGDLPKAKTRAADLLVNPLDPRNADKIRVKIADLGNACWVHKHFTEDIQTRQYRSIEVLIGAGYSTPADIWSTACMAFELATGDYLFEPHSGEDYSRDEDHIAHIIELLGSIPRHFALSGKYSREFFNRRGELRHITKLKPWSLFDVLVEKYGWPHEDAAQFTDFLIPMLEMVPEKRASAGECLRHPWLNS
Sequence of ALK (Q9UM73 whole entry): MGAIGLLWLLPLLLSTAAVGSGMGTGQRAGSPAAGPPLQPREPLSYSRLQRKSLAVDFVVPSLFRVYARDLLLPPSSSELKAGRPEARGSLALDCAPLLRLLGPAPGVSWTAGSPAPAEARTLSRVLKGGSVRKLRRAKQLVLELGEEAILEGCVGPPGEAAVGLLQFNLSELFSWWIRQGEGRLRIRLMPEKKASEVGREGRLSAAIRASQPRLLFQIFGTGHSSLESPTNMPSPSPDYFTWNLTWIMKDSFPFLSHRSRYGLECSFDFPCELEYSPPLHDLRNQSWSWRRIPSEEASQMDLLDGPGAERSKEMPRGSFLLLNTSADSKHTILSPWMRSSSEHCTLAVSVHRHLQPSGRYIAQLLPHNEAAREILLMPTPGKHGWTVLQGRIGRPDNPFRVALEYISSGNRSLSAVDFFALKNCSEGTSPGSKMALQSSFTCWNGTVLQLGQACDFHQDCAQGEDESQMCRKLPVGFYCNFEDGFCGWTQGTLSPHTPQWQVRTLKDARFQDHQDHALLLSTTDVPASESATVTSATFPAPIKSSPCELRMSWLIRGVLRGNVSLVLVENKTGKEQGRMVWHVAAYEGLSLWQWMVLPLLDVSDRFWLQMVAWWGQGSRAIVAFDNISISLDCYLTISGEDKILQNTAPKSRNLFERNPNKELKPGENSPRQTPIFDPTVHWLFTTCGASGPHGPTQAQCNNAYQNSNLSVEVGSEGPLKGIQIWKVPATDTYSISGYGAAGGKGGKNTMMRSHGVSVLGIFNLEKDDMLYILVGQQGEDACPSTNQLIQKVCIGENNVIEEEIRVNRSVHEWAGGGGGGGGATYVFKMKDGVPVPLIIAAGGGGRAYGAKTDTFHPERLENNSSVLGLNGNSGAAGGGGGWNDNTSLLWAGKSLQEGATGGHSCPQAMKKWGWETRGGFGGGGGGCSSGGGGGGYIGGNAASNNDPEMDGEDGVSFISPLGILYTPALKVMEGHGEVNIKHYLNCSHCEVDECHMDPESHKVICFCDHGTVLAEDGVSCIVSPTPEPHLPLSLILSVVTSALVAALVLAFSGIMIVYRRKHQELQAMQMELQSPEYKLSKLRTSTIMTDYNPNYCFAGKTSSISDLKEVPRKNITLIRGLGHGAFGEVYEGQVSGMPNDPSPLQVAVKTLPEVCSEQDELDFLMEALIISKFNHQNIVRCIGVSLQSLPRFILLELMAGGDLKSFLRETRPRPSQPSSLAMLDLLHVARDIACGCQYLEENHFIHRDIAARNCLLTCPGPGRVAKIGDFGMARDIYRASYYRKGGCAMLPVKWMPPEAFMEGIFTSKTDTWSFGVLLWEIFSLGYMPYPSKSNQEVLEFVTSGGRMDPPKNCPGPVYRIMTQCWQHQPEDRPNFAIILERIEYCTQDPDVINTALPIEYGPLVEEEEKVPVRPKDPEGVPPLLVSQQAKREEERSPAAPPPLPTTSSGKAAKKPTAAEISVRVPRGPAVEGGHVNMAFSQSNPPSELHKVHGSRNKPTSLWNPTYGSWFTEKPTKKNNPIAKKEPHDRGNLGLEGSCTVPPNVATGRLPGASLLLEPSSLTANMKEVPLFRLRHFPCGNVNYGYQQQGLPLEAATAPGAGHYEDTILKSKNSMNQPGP
Sequence of ERN2/IRE2 (Q76MJ5 whole entry): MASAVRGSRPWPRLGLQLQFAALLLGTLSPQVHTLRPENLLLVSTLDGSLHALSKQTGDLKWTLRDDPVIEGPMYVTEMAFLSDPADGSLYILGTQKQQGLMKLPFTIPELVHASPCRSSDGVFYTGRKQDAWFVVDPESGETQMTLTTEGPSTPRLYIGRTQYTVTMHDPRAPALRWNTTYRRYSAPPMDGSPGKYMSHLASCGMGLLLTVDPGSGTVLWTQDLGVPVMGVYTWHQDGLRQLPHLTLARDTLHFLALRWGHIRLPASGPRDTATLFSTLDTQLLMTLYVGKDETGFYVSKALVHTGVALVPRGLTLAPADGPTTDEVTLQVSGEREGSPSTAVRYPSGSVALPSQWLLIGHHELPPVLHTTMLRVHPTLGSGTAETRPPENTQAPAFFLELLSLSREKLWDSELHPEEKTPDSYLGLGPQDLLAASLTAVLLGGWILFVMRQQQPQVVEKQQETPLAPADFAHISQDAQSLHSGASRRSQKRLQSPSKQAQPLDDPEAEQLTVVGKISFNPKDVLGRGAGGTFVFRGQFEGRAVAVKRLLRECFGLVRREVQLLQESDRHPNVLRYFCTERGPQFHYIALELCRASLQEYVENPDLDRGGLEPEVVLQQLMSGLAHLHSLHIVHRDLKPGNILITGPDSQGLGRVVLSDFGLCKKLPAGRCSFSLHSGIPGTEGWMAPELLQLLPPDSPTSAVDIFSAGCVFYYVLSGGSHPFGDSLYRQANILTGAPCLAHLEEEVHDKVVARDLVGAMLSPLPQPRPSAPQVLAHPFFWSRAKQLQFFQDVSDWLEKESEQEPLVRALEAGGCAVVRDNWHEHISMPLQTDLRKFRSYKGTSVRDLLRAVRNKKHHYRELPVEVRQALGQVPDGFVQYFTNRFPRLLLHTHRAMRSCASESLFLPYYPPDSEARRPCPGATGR
Sequence of NEK6 (Q9HC98 whole entry): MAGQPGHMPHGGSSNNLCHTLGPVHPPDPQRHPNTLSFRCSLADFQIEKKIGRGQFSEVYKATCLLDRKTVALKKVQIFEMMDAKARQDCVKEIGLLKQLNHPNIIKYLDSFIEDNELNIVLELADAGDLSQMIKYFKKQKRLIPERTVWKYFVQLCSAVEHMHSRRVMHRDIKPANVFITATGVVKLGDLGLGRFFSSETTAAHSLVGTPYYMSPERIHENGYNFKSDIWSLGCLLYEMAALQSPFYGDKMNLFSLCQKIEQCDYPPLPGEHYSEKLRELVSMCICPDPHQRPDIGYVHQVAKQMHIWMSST

## COc1cc(N2CCN(C)CC2)c(C)cc1Nc1ncc(Br)c(Nc2cccnc2N(C)C)n1 [TP-5801]
[1]
  IC50: 5.38 µM
[2]; [18]
  remaining activity at 0.3 µM: 93.2%
[2]; [19]
  remaining activity at 0.3 µM: 91.6%
[3]; [18]
  remaining activity at 0.3 µM: 3.64%
[3]; [19]
  remaining activity at 0.3 µM: 3.52%
[4]; [18]
  remaining activity at 0.3 µM: 108%
[4]; [19]
  remaining activity at 0.3 µM: 105%
[5]; [18]
  remaining activity at 0.3 µM: 88.5%
[5]; [19]
  remaining activity at 0.3 µM: 87.8%
[6]; [18]
  remaining activity at 0.3 µM: 52.8%
[6]; [19]
  remaining activity at 0.3 µM: 51.5%
[7]; [18]
  remaining activity at 0.3 µM: 79.9%
[7]; [19]
  remaining activity at 0.3 µM: 77.6%
[8]; [18]
  remaining activity at 0.3 µM: 110%
[8]; [19]
  remaining activity at 0.3 µM: 108%
[9]; [18]
  remaining activity at 0.3 µM: 87%
[9]; [19]
  remaining activity at 0.3 µM: 85.9%
[10]; [18]
  remaining activity at 0.3 µM: 104%
[10]; [19]
  remaining activity at 0.3 µM: 100%
[11]; [18]
  remaining activity at 0.3 µM: 95.2%
[11]; [19]
  remaining activity at 0.3 µM: 91.5%
[12]; [18]
  remaining activity at 0.3 µM: 98.6%
[12]; [19]
  remaining activity at 0.3 µM: 98%
[13]; [18]
  remaining activity at 0.3 µM: 99.8%
[13]; [19]
  remaining activity at 0.3 µM: 96.7%
[14]; [18]
  remaining activity at 0.3 µM: 99%
[14]; [19]
  remaining activity at 0.3 µM: 95.5%
[15]; [18]
  remaining activity at 0.3 µM: 114%
[15]; [19]
  remaining activity at 0.3 µM: 110%
[16]; [18]
  remaining activity at 0.3 µM: 103%
[16]; [19]
  remaining activity at 0.3 µM: 101%
[17]; [18]
  remaining activity at 0.3 µM: 97.1%
[17]; [19]
  remaining activity at 0.3 µM: 94.6%
